The record followed here is patent US20230031406A1, “COMPOUNDS AND COMPOSITIONS FOR TREATING CONDITIONS ASSOCIATED WITH NLRP ACTIVITY” (Novartis AG, priority 2018, published 2023).

The IC50 is the point on the concentration scale where inhibition reaches its midpoint.

The test deals with PMA-differentiated THP-1 cells. Nature of the test: IL-1β production in PMA-differentiated THP-1 cells stimulated with gramicidin (hTHP-1 assay containing 2% fetal bovine serum; Procedures 1 and 2). In kind it is cell-based, human. The settings on record: 2% fetal bovine serum. Summed up: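 THP-1 cells were differentiated with PMA (20 ng/ml, 16-18 h), detached, and plated at 50,000 cells/well in RPMI 1640 with 2% FBS. They were pre-treated with compound (0.0017–100 μM, 0.37% DMSO) for 1 h, then stimulated with gramicidin (5 μM) for 2 h. Supernatant IL-1β was measured by HTRF.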

Where [1] appears, read: Table B1, class symbols, read-out: Average IC50 of compounds in hTHP-1 assay: hTHP-1 IC50.
The mark [2] stands for this setting: Homo sapiens, THP-1, Table B2, class symbols, read-out: hTHP-1 IC50.
[3] abbreviates: Homo sapiens, THP-1, Table B2, numeric bounds, read-out: hTHP-1 IC50.
Where [4] appears, read: Homo sapiens, THP-1, Table B1, class symbols, read-out: Average IC50 of compounds in hTHP-1 assay: hTHP-1 IC50.
The mark [5] stands for this setting: Table B2, class symbols, read-out: hTHP-1 IC50.
Setting [6] is: Homo sapiens, THP-1, Table B3, hTHP-1 assay, class symbols, read-out: IC50.

Like-named read-outs stand apart in the source and are kept apart here.

`CC1CCc2c1nc1c(c2NC(=O)N=S(N)(=O)c2ccc(CN(C)C)cc2)CCC1` (centres unmarked) [Compound 134, 4-((dimethylamino)methyl)-N′-((3-methyl-1,2,3,5,6,7-hexahydrodicyclopenta[b,e]pyridin-8-yl)carbamoyl)benzenesulfon-imidamide]: the IC50 under setting [1] lay within 1 to 5 µM.
For the compound `CC(C)c1ncc(F)c(C(C)C)c1NC(=O)N=S(N)(=O)c1nc(C(C)(C)O)cs1` (single isomer, unassigned) [Compound 163b, (S) or (R)-N′-((5-fluoro-2,4-diisopropylpyridin-3-yl)carbamoyl)-4-(2-hydroxypropan-2-yl)thiazole-2-sulfonimidamide], under setting [1], the IC50 lay in the range of 5 to 30 µM.
Consider `CC(C)(O)c1cc(Cl)c(S(N)(=O)=NC(=O)Nc2c3c(nc4c2CCC4)CCC3)s1` (centres unmarked) [Compound 691, 3-Chloro-N′-((1,2,3,5,6,7-hexahydrodicyclopenta[b, e]pyridin-8-yl)carbamoyl)-5-(2-hydroxypropan-2-yl)thiophene-2-sulfonimidamide], for which the IC50 under setting [2] is 1 to 5 µM.
For `CC(C)(O)c1cccc(S(N)(=O)=NC(=O)Nc2c3c(nc4c2CCC4)CCC3)c1` (single isomer, unassigned) [Compound 625a, (S) or (R)-N′-((1,2,3,5,6,7-hexahydrodicyclopenta [b,e]pyridin-8-yl)carbamoyl)-3-(2-hydroxypropan-2-yl)benzene-sulfonimidamide], under setting [3], the IC50 was more than 30 µM.
Turning to `CC(C)n1ccc(S(N)(=O)=NC(=O)Nc2c3c(nc4c2CCC4)CCC3)n1` (centres unmarked) [Compound 119, N′-((1,2,3,5,6,7-hexahydrodicyclopenta[b,e]pyridin-8-yl)carbamoyl)-1-isopropyl-1H-pyrazole-3-sulfonimidamide], the IC50 under setting [4] lay within 1 to 5 µM.
Turning to `Cc1c(C(F)(F)F)nc2c(c1NC(=O)N=S(N)(=O)c1cc(C(C)(C)O)cs1)CCC2` (centres unmarked) [Compound 624, 4-(2-Hydroxypropan-2-yl)-N′-((3-methyl-2-(trifluoromethyl)-6,7-dihydro-5H-cyclopenta[b]pyridin-4-yl)carbamoyl)thiophene-2-sulfonimidamide], the IC50 under setting [2] was in the range of 0.04 to 0.2 µM.
Take `Cc1c(C(C)C)nc2c(c1NC(=O)N=S(N)(=O)c1sc(C(C)(C)O)cc1F)CCC2` (single isomer, unassigned) [Compound 645a, (R) or (S)-3-Fluoro-5-(2-hydroxypropan-2-yl)-N′-((2-isopropyl-3-methyl-6,7-dihydro-5H-cyclopenta[b]pyridin-4-yl)carbamoyl) thiophene-2-sulfonimidamide]: the IC50 under setting [5] lay in the range of 0.04 to 0.2 µM.
For the compound `CC(C)c1cc(NC(=O)N=S(N)(=O)c2cc(C(C)(C)O)cs2)c2c(n1)CCC2` (single isomer, unassigned) [Compound 182a, (S) or (R)-4-(2-Hydroxypropan-2-yl)-N′-((2-isopropyl-6,7-dihydro-5H-cyclopenta[b]pyridin-4-yl)carbamoyl) thiophene-2-sulfonimidamide], the IC50 under setting [3] is more than 30 µM.
Regarding `Cc1c(C2(F)CC2)nc2c(c1NC(=O)N=S(N)(=O)c1sc(C(C)(C)O)cc1F)CCC2` (single isomer, unassigned) [Example 686, (S) or (R)-3-fluoro-N′-((2-(1-fluorocyclopropyl)-3-methyl-6,7-dihydro-5H-cyclopenta[b]pyridin-4-yl)carbamoyl)-5-(2-hydroxypropan-2-yl) thiophene-2-sulfonimidamide], the IC50 (Homo sapiens, THP-1, Table B3, hTHP-1 assay, numeric values, read-out: IC50) is more than 30 µM.
Consider `CC(C)n1ccc(S(N)(=O)=NC(=O)Nc2c3c(nc4c2CCC4)CCC3)n1` (single isomer, unassigned) [Compound 119a, (R) or (S)-N′-((1,2,3,5,6,7-hexahydrodicyclo-penta[b,e]pyridin-8-yl)carbamoyl)-1-isopropyl-1H-pyrazole-3-sulfonimidamide], for which the IC50 under setting [4] is 1 to 5 µM.
Turning to `CNS(=O)(=NC(=O)Nc1c2c(nc3c1CCC3)CCC2)c1ccc(CN(C)C)cc1` (single isomer, unassigned) [Compound 120a, (R) or (S)-4-((dimethylamino)methyl)-N′-((1,2,3,5,6,7-hexahydro-dicyclopenta[b,e]pyridin-8-yl)carbamoyl)-N-methylbenzene-sulfonimidamide], the IC50 (Homo sapiens, THP-1, Table B1, numeric bounds, read-out: Average IC50 of compounds in hTHP-1 assay: hTHP-1 IC50) was more than 30 µM.
For the compound `CC1(C)CCc2c1nc1c(c2NC(=O)N=S(N)(=O)c2cnn(C(F)F)c2)CCC1` (single isomer, unassigned) [Compound 637b, (S) or (R)-1-(Difluoromethyl)-N′-((3,3-dimethyl-1,2,3,5,6,7-hexahydrodicyclopenta [b,e]pyridin-8-yl)carbamoyl)-1H-pyrazole-4-sulfonimidamide], the IC50 was 1 to 5 µM under setting [2] and more than 30 µM under setting [3].
Turning to `CCn1cc(F)c(S(N)(=O)=NC(=O)Nc2c3c(nc(C(F)(F)F)c2-c2ccc(F)cc2)CCC3)n1` (single isomer, unassigned) [Example 788, (S) or (R)-1-ethyl-4-fluoro-N′-((3-(4-fluorophenyl)-2-(trifluoromethyl)-6,7-dihydro-5H-cyclopenta[b]pyridin-4-yl)carbamoyl)-1H-pyrazole-3-sulfonimidamide], the IC50 (Table B4, class symbols, read-out: hTHP-1 IC50) was 1 to 5 µM.
Turning to `CC(C)(O)c1nc(CO)c(S(N)(=O)=NC(=O)Nc2c3c(nc4c2CCC4)CCC3)s1` (single isomer, unassigned) [Compound 150a, (S) or (R)-N′-((1,2,3,5,6,7-hexahydrodicyclo-penta[b,e]pyridin-8-yl)carbamoyl)-4-(hydroxymethyl)-2-(2-hydroxypropan-2-yl)thiazole-5-sulfonimidamide], the 50% inhibitory concentration (IC50) under setting [1] was in the range of 5 to 30 µM.
On to `Cc1c(CC(F)(F)F)nc2c(c1NC(=O)N=S(N)(=O)c1nn(C(F)F)cc1F)CCC2` (single isomer, unassigned) [Example 723, (R) or (S)-1-(difluoromethyl)-4-fluoro-N′-((3-methyl-2-(2,2,2-trifluoroethyl)-6,7-dihydro-5H-cyclopenta[b]pyridin-4-yl)carbamoyl)-1H-pyrazole-3-sulfonimidamide], for which, under setting [6], the IC50 was 1 to 5 µM.
Regarding `Cc1c(C2(C)CC2)nc2c(c1NC(=O)N=S(N)(=O)c1cc(C(C)(C)O)cs1)CCC2` (centres unmarked) [Compound 669, 4-(2-Hydroxypropan-2-yl)-N′-((3-methyl-2-(1-methylcyclopropyl)-6,7-dihydro-5H-cyclopenta[b]pyridin-4-yl)carbamoyl)thiophene-2-sulfonimidamide], the IC50 under setting [2] lay within 5 to 30 µM.
In the case of `CCn1ccc(S(N)(=O)=NC(=O)Nc2c(C)c(C(F)(F)F)nc3c2CCC3)n1` (centres unmarked) [Example 634, 1-Ethyl-N′-((3-methyl-2-(trifluoromethyl)-6,7-dihydro-5H-cyclopenta[b]pyridin-4-yl)carbamoyl)-1H-pyrazole-3-sulfonimidamide], the IC50 under setting [6] was 1 to 5 µM.
Turning to `C[C@@H]1CCc2c1nc1c(c2NC(=O)N=S(N)(=O)c2ccn(C(C)(F)F)n2)CCC1` (single isomer, unassigned) [Compound 723a, (S) or (R)-1-(1,1-Difluoroethyl)-N′-(((R)-3-methyl-1,2,3,5,6,7-hexahydrodicyclopenta[b, e]pyridin-8-yl)carbamoyl)-1H-pyrazole-3-sulfonimidamide], the IC50 under setting [5] lay in the range of 5 to 30 µM.
For the compound `CO[C@H]1COc2c(S(N)(=O)=NC(=O)Nc3c(C)c(C(F)(F)F)nc4c3CCC4)cnn2C1` (stereo partly drawn) [Example 564, (6R)-6-methoxy-N′-((3-methyl-2-(trifluoromethyl)-6,7-dihydro-5H-cyclopenta[b]pyridin-4-yl)carbamoyl)-6,7-dihydro-5H-pymzolo[5,1-b][1,3]oxazine-3-sulfonimidamide], the concentration for half-maximal inhibition (IC50) under setting [6] lay within 1 to 5 µM.
